Tests used:
HIV-1 = test: Preincubation of isolated HIV-1 with test compounds, then infection of PHA-activated CBMC; settings: 2 hours at 37° C., drug removed, RT activity and p24 on day 7, FIG. 1
Protocol: Identical viral inocula (with respect to viral p24 levels) were then added to PHA-activated CBMC. Viral infectivity was assessed by measurement of RT activity in cell-free culture supernatants after 7 days incubation of cells and virus. […] The results are averages ±S.D. of triplicate determinations from three separate experiments.
All cells were cultured in RPMI medium containing 10% fetal bovine serum. HIV-1 stocks were propagated by subculture in MT-2 cells; aliquots of the cell-free culture supernatants were generally used as viral inocula. In some cases, virus was further concentrated from these cell-free supernatants by ultracentrifugation. CBMC were prestimulated with phytohemagglutinin (PHA) prior to use in infection experiments, as described in Rooke et al, Virology 176: 205-215 (1990). Stock solutions of the test compounds were prepared in dimethyl sulfoxide (DMSO). […] Virus production was assessed by measurement of RT activity and viral p24 antigen levels in the culture supernatants.
After incubation, drug-free RPMI was added to a final volume of 15 ml and the diluted sample was concentrated to a final volume of 0.7 ml using a Centriprep-100 centrifugal concentrating device, according to manufacturer's directions. […] On day 7, culture supernatants were isolated and HIV production assessed by measurement of RT activity and p24 antigen levels in the cell-free supernatants.

[1] = test system: PBL cells isolated from blood of HIV-1 infected patients; test: Incubation of PBL from HIV-1 infected patients with compound, then co-culture with CBMC; format: cell-based; settings: for infectivity of HIV-1 produced by patient PBL: 10 μM, 2 hr at 37° C., drug removed, co-culture with CBMC, p24 antigen, FIG. 3
Protocol: FIG. 3 depicts the effect of pretreatment of peripheral blood lymphocytes (PBL) from HIV-1 infected patients with Compound IA on the subsequent virus infectivity of CBMC cells. 2×10^6 isolated PBL cells were incubated for 2 hours with media only (●), 10 μM nevirapine (▪), or 10 μM Compound IA (▴), then residual drug was removed. The cells were then co-cultured with 2×10^6 CBMC cells and p24 production was monitored.
PBL cells (2×10^6 cells) isolated from blood of HIV-1 infected patients were incubated with media, 10 μM nevirapine and 10 μM Compound IA, in a total volume of 1 ml for 2 hr at 37° C. Excess drug was then removed by pelleting the cells by centrifugation at 300×g for 10 min and removal of the medium. The cell pellet was washed by suspension in 10 ml media, followed by centrifugation. This washing step was repeated twice. The final cell pellet was resuspended in 1 ml media, then co-cultured with 1 ml of activated CBMC (2×10^6 cells) The culture medium was changed every two days, and fresh activated CBMC (2×10^6 cells) were added once a week. HIV-1 production was monitored by measurement of p24 antigen levels in cell-free culture supernatants.
FIG. 3 illustrates the results obtained using PBL from three different patients.

[2] = test system: HIV-1 chronically-infected H9 cells; test: Incubation of HIV-1 chronically-infected H9 cells with test compounds, then infectivity on MT-2 cells; format: cell-based
Source text: FIG. 2 depicts the effect of pretreatment of chronically-infected H9 cells with Compound IA or UC84 on (A) virus particle release from H9 cells during drug exposure, as assessed by measurement of HIV-1 p24 levels; (B) infectivity of isolated virus produced by H9 cells during drug treatment, as assessed by the ability to subsequently infect MT2 cells in the absence of drug; and (C) the ability of Compound IA-pretreated chronically-infected H9 cells to subsequently infect MT2 cells in co-culture experiments carried out in the absence of drug. The data illustrated for (B) and (C) were obtained four days after exposure of MT2 cells to virus or H9 cells, respectively. (∘) Compound UC84; (●) Compound IA.
The cells were then separated from the culture supernatants by centrifugation at 1000×g for 10 min. The virus particles were isolated from the culture supernatants and from residual Compound IA using Centriprep-100 centrifugal concentrating devices and the dilution/concentration protocol described above in Example 1. The pelleted H9 cells were washed by suspension in 10 ml RPMI, followed by centrifugation at 1000×g for 10 min. The cell pellet was resuspended in 4 ml RPMI/10% FBS, and used in co-culture experiments as described below.
Aliquots of the final concentrated HIV suspension were added to MT-2 cells ([…] cells/ml). Virus infectivity was assessed 6 days post-infection by analysis of syncytium formation, and RT activity and p24 antigen in the MT-2 cell culture supernatants. Similarly, aliquots of the drug-treated H9 cells were added to MT-2 cells (3×10^5 cells/ml) to give a final MT-2:H9 cell ratio of 30:1. Cells were co-cultured for 4 days, and HIV infection of MT-2 cells was scored by assessing syncytium formation and by analysis of RT activity in the culture supernatants.

[3] = test system: HIV-1 infection of uninfected MT-2 cells; settings: MT-2 cells pretreated with 2 μM, drug removed, continued presence of HIV-1
Protocol: FIG. 4A: Uninfected MT2 cells were incubated for 18 hours with varying concentrations of Compound IA in 1 ml media, then the cells were pelleted by centrifugation, and washed twice by resuspension in 10 ml medium followed by centrifugation. The cells were exposed to identical inocula of HIV-1 and cultured in the absence of added drug. Four days after removal of Compound IA, the extent of HIV-1 infection was assessed by measurement of syncytia formation (●), viral p24 antigen levels (▴), and RT activity (∘), in cell-free supernatants. […] Uninfected MT2 cells were incubated for 18 hours in the absence (∘) or the presence of 0.5 μM (▴), 1 μM (∇), or 2 μM (●), of Compound IA. […] Viral cytopathicity was scored by microscopic assessment of syncytia formation. […]
FIG. 5A: Uninfected MT2 cells were incubated for 18 hours in the absence (▪) or the presence (●) of 2 μM of Compound IA, then the cells were isolated and cultured in the absence of drug. At various times thereafter, HIV-1 was added and virus infectivity assessed by microscopic analysis of syncytium formation. […]
All cells were cultured in RPMI medium containing 10% fetal bovine serum. […] Virus production was assessed by measurement of RT activity and viral p24 antigen levels in the culture supernatants. […]

Structure (SMILES) | viral infectivity after preincubation of isolated HIV-1 with compound (HIV-1) | infectivity of HIV-1 produced by patient PBL [1] | persistence of attenuated infectivity following removal of extracellular compound ([2]; chronically-infected H9 cells) | infectivity of virus produced by H9 cells following removal of compound ([2]; pretreated, washed H9 cells co-cultured with MT-2 cells in absence of drug) | infectivity of virus particles isolated after exposure of chronically-infected H9 cells ([2]; virus isolated from culture supernatants, added to MT-2 cells in absence of drug, FIG. 2) | duration of resistance to the cytopathic effect of HIV-1 [3] | resistance of pretreated cells to the cytopathic effect of HIV-1 ([3]; syncytium formation) | viral infectivity after 30 days co-culture with uninfected CBMC ([1]; 10 μM pretreatment of patient PBL, 30 days co-culture)
Cc1ccnc2c1NC(=O)c1cccnc1N2C1CC1 [nevirapine, reference compound] | No viral inactivation | unable to significantly delay viral infectivity |  |  |  |  |  | 
CC(C)=CCOc1cc(NC(=S)c2ccoc2C)ccc1Cl [Compound IA, N-[4-chloro-3-(3-methyl-2-butenyloxy)phenyl]-2-methyl-3-furancarbothioamide] | rendered non-infectious | abolished the infectivity | at least 4 days | also attenuated in infectivity | significantly attenuated in infectivity | at least 9 days | completely resistant | No viral infectivity
